# Measured values taken from PubChem BioAssay AID1645865 (Buhrlage Lab, Dana-Farber Cancer Institute and Novartis …, 2021).
# Calls of active or inactive are those of the source.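 Rule for the calls: active = maximal inhibition of the USP30 enzyme reaching 30% or more across the dose series; inactive = the rest.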
# Biological target: Ubiquitin carboxyl-terminal hydrolase 30 (Homo sapiens) (UniProt Q70CQ3)
# Experiment: ubiquitin-specific protease 30 DUB inhibitors, concentration-effect, biochemical, validation of primary actives (AID 1645865)
# Conditions: purified USP30, Ub-rhodamine cleavage, fluorescence, 2 h
# Sequence of Ubiquitin carboxyl-terminal hydrolase 30 (Homo sapiens) (Q70CQ3 whole entry, looked up): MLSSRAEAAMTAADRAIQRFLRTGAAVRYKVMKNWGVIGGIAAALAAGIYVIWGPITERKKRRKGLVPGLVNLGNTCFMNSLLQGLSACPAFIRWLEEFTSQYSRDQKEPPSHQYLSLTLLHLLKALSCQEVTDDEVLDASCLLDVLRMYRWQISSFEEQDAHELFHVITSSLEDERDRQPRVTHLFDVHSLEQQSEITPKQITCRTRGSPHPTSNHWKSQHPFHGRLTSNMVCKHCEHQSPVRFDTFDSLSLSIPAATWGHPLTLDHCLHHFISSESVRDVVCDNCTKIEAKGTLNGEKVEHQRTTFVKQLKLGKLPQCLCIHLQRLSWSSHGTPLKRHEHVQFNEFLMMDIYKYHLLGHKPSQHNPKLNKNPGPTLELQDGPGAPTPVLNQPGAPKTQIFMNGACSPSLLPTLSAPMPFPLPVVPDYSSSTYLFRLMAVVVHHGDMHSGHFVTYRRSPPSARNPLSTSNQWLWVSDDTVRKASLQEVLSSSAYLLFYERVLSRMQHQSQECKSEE
row,Structure (SMILES),IC50
1,Cc1sc(NC(=O)CNc2ccccc2)nc1-c1ccc2c(c1)CCN2C(=O)C(C)C,> 50 µM (inactive)
2,Oc1sc(C=Nc2cc(Cl)ccc2Cl)c2ccccc12,0.981 µM
3,O=C(Nc1ccc2c(c1)OCCO2)C1CCN(C(=O)c2cc(-c3cccnc3)n[nH]2)CC1,> 50 µM (inactive)
4,Cc1cc(N2CCOCC2)nc2ccc(NC(=O)CCC(=O)Nc3ccc(F)cc3)cc12,10.3 µM
5,Cc1ccccc1C(=O)OCCN1C(=O)c2cccc3c(N4CCOCC4)ccc(c23)C1=O,> 50 µM (inactive)
6,Cc1cc(C)cc(NC(=O)CSc2ccc(-c3ccncc3)nn2)c1,34.6 µM
7,COc1cccc(NC(=O)c2ccc(F)cc2Cl)c1,> 50 µM (inactive)
8,COc1cc(OC)cc(C(=O)Nc2cnc(-c3ccccc3)nc2)c1,> 50 µM (inactive)
9,C/C=C\C1=CC(=O)[C@]23C[C@H]2[C@]2(C)CO[C@@]1(O)[C@@]3(O)O2,> 50 µM (inactive)
10,Cc1cccc(NC(=O)CSc2ccc(-n3cnc(-c4ccccc4)c3)nn2)c1,1.95 µM
11,CC(C)(C)c1ccc(C(=O)Nc2ccc(Cn3cncn3)cc2)cc1,> 50 µM (inactive)
12,O=C(NC1CCS(=O)(=O)C1)c1ccc(N2CCC(Cc3ccccc3)CC2)nn1 (stereo not given),> 50 µM (inactive)
13,CC(C)CC1NC(=O)C2CCCN2C1=O (stereo not given),> 50 µM (inactive)
14,Cc1cccc(-c2noc(CCn3c(=O)[nH]c4ccccc4c3=O)n2)c1,29.8 µM
15,CCc1nc2c(NC(=O)Nc3cccc(C(=O)OC)c3)cccn2n1,> 50 µM (inactive)
16,CCOc1ccc2c(c1)c(=O)c(C(=O)c1ccccc1)cn2CC(=O)Nc1ccccc1,4.27 µM
17,COc1ccc(C)cc1NC(=O)C1CC(=O)Nc2nc(SCc3ccccc3)nn21 (stereo not given),15.7 µM
18,O=C(NC(Cc1ccccc1)c1nc2ccccc2[nH]1)c1ccccn1 (stereo not given),> 50 µM (inactive)
19,Cc1ccc(C2c3cccn3CCN2C(=O)Nc2ccccc2)cc1 (stereo not given),> 50 µM (inactive)
20,COc1cccc(-n2c(CNCc3cccnc3)nc3ccc([N+](=O)[O-])cc3c2=O)c1,25.2 µM

row,Structure (SMILES),IC50
1,COc1ccc(C(=O)Nc2ccc(S(=O)(=O)N3CCCCC3)cc2)cc1,> 50 µM (inactive)
2,Cc1ccc(NC(=O)Cn2c(Nc3cccc(C)c3)nc(C)cc2=O)cc1,26.6 µM
3,O=C(c1ccco1)N1CCCC2(C1)Nc1cccnc1NC2=NC1CCCC1 (stereo not given),> 50 µM (inactive)
4,Cc1cccc(CNC(=O)C2CCCN(S(=O)(=O)Cc3ccc(F)cc3)C2)c1 (stereo not given),14.5 µM
5,CC(=O)Nc1ccc(Cc2nc(-c3ccc4c(c3)nc(C)c(=O)n4C3CCCC3)no2)cc1,> 50 µM (inactive)
6,Cc1ccc(NC(=O)c2ccc(Nc3nnc(C)c4ccccc34)cc2)cc1,43.2 µM
7,Cc1ccc2oc(=O)c(S(=O)(=O)N3CCCCC3)cc2c1,12.7 µM
8,CC(C)N1CC2CN(Cc3ccc(Cl)cc3)CCN2Cc2ccccc21 (stereo not given),> 50 µM (inactive)
9,O=C(CSc1nc2cc(C(F)(F)F)ccc2s1)NCC(=O)c1ccccc1,1.82 µM
10,O=C1CC(c2cc3c(cc2Br)OCO3)c2cc3c(cc2N1)OCCO3 (stereo not given),19.2 µM
11,O=C1c2ccccc2-n2c1nc1ccccc1c2=O,> 50 µM (inactive)
12,O=C(Nc1ccc(F)cc1F)NC1CCN(c2ccccc2)C1=O (stereo not given),25.8 µM
13,COc1ccccc1CNC(=O)c1c(O)c2cnn(-c3cccc(C)c3)c2[nH]c1=O,> 50 µM (inactive)
14,Cc1cccc(N2C(=O)/C(=C\c3ccc4c(c3)OCCO4)c3ccccc3C2=O)c1,> 50 µM (inactive)
15,O=[N+]([O-])c1ccccc1C(c1c[nH]c2ccccc12)c1c[nH]c2ccccc12,> 50 µM (inactive)
16,O=C(OCc1ccc(F)cc1)c1ccc2ccccc2n1,> 50 µM (inactive)
17,Cc1ccc(Nc2nc(O)c(CC(=O)Nc3ccccc3C)s2)cc1C,17.3 µM
18,O=C(Oc1ccc(-c2cnc3ccccc3n2)cc1)c1ccc(F)cc1,18.2 µM
19,CCCCCCCCCC(CCCCCCCCCC(=O)O)O[C@H]1O[C@@H](COC(C)=O)[C@H](O)[C@@H](O)[C@H]1OC(=O)CC(=O)O (stereo not given in full),21.7 µM
20,Cc1ccc(Cn2nnc(-c3ccccc3Cl)n2)cc1,> 50 µM (inactive)
